From ChEMBL document CHEMBL1201862, “PubChem BioAssay data set” (2004)
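Values below derive from 48-hour exposures of cells grown in 96-well plates, with endpoints linearly interpolated between the two concentrations bracketing the appropriate inhibition level. At the GI50, growth is halved.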 Calls of active or inactive are those of the source. Rule as the data show it: active = GI50 up to about 1.1 µM and inactive = higher.

Legend:
Experiment in all cases: inhibition of tumour cell growth, NCI panel, 48 h
786-0 = tested on: 786-0
COLO 205 = tested on: COLO 205
HCC 2998 = tested on: HCC 2998
HCT-116 = tested on: HCT-116
HOP-62 = tested on: HOP-62
IGROV-1 = tested on: IGROV-1
KM12 = tested on: KM12
Malme-3M = tested on: Malme-3M
NCI-H226 = tested on: NCI-H226
NCI-H522 = tested on: NCI-H522
OVCAR-3 = tested on: OVCAR-3
SK-MEL-5 = tested on: SK-MEL-5
SNB-75 = tested on: SNB-75
U-251 = tested on: U-251
UACC-257 = tested on: UACC-257
UO-31 = tested on: UO-31
SK-MEL-2 = tested on: SK-MEL-2

For `CCN1CCN(c2ccc(Nc3ccnc4ccc5nn(C)nc5c34)cc2)CC1`, the GI50 (786-0) was 10.4 µM (inactive), the GI50 (COLO 205) was 5.08 µM (inactive) and the GI50 (HCC 2998) was 13.2 µM (inactive). The GI50 (HCT-116) was 5.58 µM (inactive), the GI50 (HOP-62) was 13.1 µM (inactive) and the GI50 (IGROV-1) was 18.6 µM (inactive). For the same compound, the GI50 (KM12) was 10.7 µM (inactive), the GI50 (Malme-3M) was 16.9 µM (inactive) and the GI50 (NCI-H226) was 12.3 µM (inactive). For the same compound, the GI50 (NCI-H522) was 11.1 µM (inactive), the GI50 (OVCAR-3) was 13.5 µM (inactive) and the GI50 (SK-MEL-5) was 15.2 µM (inactive). For the same compound, the GI50 (SNB-75) was 13.2 µM (inactive), the GI50 (U-251) was 13.5 µM (inactive) and the GI50 (UACC-257) was 16.6 µM (inactive). The GI50 (UO-31) was 12.8 µM (inactive).
In the case of `CCC(C)(C)C(=O)O[C@H]1C[C@@H](C)C=C2C=C[C@H](C)[C@H](CC[C@@H]3C[C@@H](O)CC(=O)O3)[C@H]21` [SIMVASTATIN], the GI50 (786-0) is reported as 9.33 µM (inactive), the GI50 (COLO 205) is reported as 12.1 µM (inactive) and the GI50 (HCC 2998) is reported as 16.5 µM (inactive). The GI50 (HCT-116) was 3.27 µM (inactive), the GI50 (HOP-62) was 9.2 µM (inactive) and the GI50 (IGROV-1) was 0.647 µM (active). The GI50 (KM12) was 8.45 µM (inactive), the GI50 (OVCAR-3) was 23.1 µM (inactive) and the GI50 (SK-MEL-2) was 0.522 µM (active). The GI50 (SNB-75) was 0.658 µM (active), the GI50 (U-251) was 0.766 µM (active) and the GI50 (UACC-257) was 17.3 µM (inactive). The GI50 (UO-31) was 3.72 µM (inactive).
In the case of `N#Cc1c(-c2ccccc2)cc(-c2ccc(N)cc2)[nH]c1=O`, the GI50 (786-0) is reported as > 100 µM (inactive), the GI50 (COLO 205) is reported as > 100 µM (inactive) and the GI50 (HCC 2998) is reported as > 100 µM (inactive). The GI50 (HCT-116) was > 100 µM (inactive), the GI50 (HOP-62) was > 100 µM (inactive) and the GI50 (IGROV-1) was > 100 µM (inactive). For the same compound, the GI50 (KM12) was > 100 µM (inactive), the GI50 (Malme-3M) was > 100 µM (inactive) and the GI50 (NCI-H226) was > 100 µM (inactive). For the same compound, the GI50 (NCI-H522) was > 100 µM (inactive), the GI50 (OVCAR-3) was > 100 µM (inactive) and the GI50 (SK-MEL-5) was > 100 µM (inactive). For the same compound, the GI50 (SNB-75) was 25.2 µM (inactive), the GI50 (U-251) was > 100 µM (inactive) and the GI50 (UACC-257) was > 100 µM (inactive). For the same compound, the GI50 (UO-31) was > 100 µM (inactive).
With `O=C1c2ccccc2OP(=O)(OCC(F)(F)F)OC1(C(F)(F)F)C(F)(F)F` (configuration not stated) the GI50 (786-0) was > 100 µM (inactive), the GI50 (COLO 205) was > 100 µM (inactive) and the GI50 (HCC 2998) was > 100 µM (inactive). The GI50 (HCT-116) was > 100 µM (inactive), the GI50 (HOP-62) was > 100 µM (inactive) and the GI50 (IGROV-1) was > 100 µM (inactive). The GI50 (KM12) was > 100 µM (inactive), the GI50 (NCI-H226) was > 100 µM (inactive) and the GI50 (NCI-H522) was > 100 µM (inactive). For the same compound, the GI50 (SK-MEL-2) was > 100 µM (inactive), the GI50 (SK-MEL-5) was > 100 µM (inactive) and the GI50 (SNB-75) was > 100 µM (inactive). For the same compound, the GI50 (U-251) was > 100 µM (inactive), the GI50 (UACC-257) was > 100 µM (inactive) and the GI50 (UO-31) was 45.3 µM (inactive).
For `O=C(O)CCc1nn2c(nc1=O)sc1ccc3ccccc3c12`, the GI50 (786-0) was > 100 µM (inactive), the GI50 (COLO 205) was > 100 µM (inactive) and the GI50 (HCC 2998) was > 100 µM (inactive). The GI50 (HCT-116) was > 100 µM (inactive), the GI50 (HOP-62) was > 100 µM (inactive) and the GI50 (IGROV-1) was > 100 µM (inactive). The GI50 (Malme-3M) was > 100 µM (inactive), the GI50 (NCI-H226) was > 100 µM (inactive) and the GI50 (OVCAR-3) was > 100 µM (inactive). The GI50 (SK-MEL-5) was > 100 µM (inactive), the GI50 (SNB-75) was > 100 µM (inactive) and the GI50 (U-251) was > 100 µM (inactive). The GI50 (UACC-257) was > 100 µM (inactive) and the GI50 (UO-31) was > 100 µM (inactive).
With `CC1=C(C(=O)O)N2C(=O)[C@@H](NC(=O)C(c3ccccc3)N3CSC(=S)N(C(C)C)C3)C2SC1` (some centres not stated) the GI50 (786-0) was > 100 µM (inactive), the GI50 (COLO 205) was 86.3 µM (inactive) and the GI50 (HCT-116) was > 100 µM (inactive). The GI50 (HOP-62) was > 100 µM (inactive), the GI50 (IGROV-1) was > 100 µM (inactive) and the GI50 (KM12) was > 100 µM (inactive). For the same compound, the GI50 (Malme-3M) was > 100 µM (inactive), the GI50 (NCI-H522) was 30.4 µM (inactive) and the GI50 (OVCAR-3) was > 100 µM (inactive). The GI50 (SK-MEL-2) was > 100 µM (inactive), the GI50 (SK-MEL-5) was > 100 µM (inactive) and the GI50 (SNB-75) was > 100 µM (inactive). The GI50 (U-251) was > 100 µM (inactive), the GI50 (UACC-257) was > 100 µM (inactive) and the GI50 (UO-31) was > 100 µM (inactive).
In the case of `c1ccc(SC2(Sc3ccccc3)CCCC2)cc1`, the GI50 (786-0) is reported as > 100 µM (inactive), the GI50 (COLO 205) is reported as > 100 µM (inactive) and the GI50 (HCT-116) is reported as > 100 µM (inactive). The GI50 (HOP-62) was > 100 µM (inactive), the GI50 (KM12) was > 100 µM (inactive) and the GI50 (NCI-H522) was > 100 µM (inactive). For the same compound, the GI50 (OVCAR-3) was > 100 µM (inactive), the GI50 (SK-MEL-2) was > 100 µM (inactive) and the GI50 (SK-MEL-5) was > 100 µM (inactive). For the same compound, the GI50 (SNB-75) was > 100 µM (inactive), the GI50 (U-251) was > 100 µM (inactive) and the GI50 (UACC-257) was > 100 µM (inactive). For the same compound, the GI50 (UO-31) was > 100 µM (inactive).
